Data on one compound can be found in patent publication EP0302379A1, “Naphthothiazepine derivatives and a process for preparing the same” (TANABE SEIYAKU CO., LTD., priority 1987, dated 1989).

SMILES strings stand for the structures. Structures can show the parent of a compound that is named as a salt.

The subject of this assay is spontaneously hypotensive rats (SHR). Nature of the assay: Hypotensive activity: systolic blood pressure by tail plethysmographic technique after oral dosing. Format: in vivo. Particulars: 30 mg/kg orally, SHR fasted overnight. As for the experimental part: A test compound dissolved or suspended in water was administered orally at a dose of 30 mg/kg to spontaneously […] (SHR) fasted overnight, and the systolic blood pressure of the rats was measured at intervals by the tail plethysmographic technique (The Journal of Laboratory and Clinical Medicine, Vol. 78(1971), page 957). The hypotensive activity of the test compound was estimated in terms of "Decrease in Blood pressure (Δ mm Hg)" which was calculated by the following formula: Decrease in Blood pressure (Δ mm Hg) = [formula]

`COc1ccc([C@@H]2Sc3ccc4ccccc4c3N(CCN(C)C)C(=O)[C@@H]2OC(C)=O)cc1` (racemic) [Test compound, (±)-cis-2-(4-methoxyphenyl)-3-acetoxy-5-[2-dimethylamino)ethyl]-2,3-dihydro-naphtho[2,1-b][1,5]thiazepin-4(5H)-one fumarate]: the “Decrease in Blood pressure” value (Time after dosing 1 hr) was 58.3±8.8 Δmm Hg, the “Decrease in Blood pressure” value (Time after dosing 2 hrs) was 51.3±7.7 Δmm Hg and the “Decrease in Blood pressure” value (Time after dosing 5 hrs) is recorded as 34.0±6.2 Δmm Hg.
